The source made the active and inactive calls.
Columns and labels:
[1] = target: Lytic switch protein BZLF1 (Epstein-Barr virus (strain B95-8) (HHV-4) (Human herpesvirus 4), UniProt P03206); assay: EBV ZTA inhibitors, dose response, counter-screen for EBNA-1 inhibitor project, biochemical, fluorescence polarization, Epstein-Barr virus, 1536-well (AID 2377); design: species or system human gammaherpesvirus 4;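 further: fluorescence polarization of Cy5-labelled ZRE DNA probe bound by purified Zta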
[2] = target: Epstein-Barr nuclear antigen 1 (Epstein-Barr virus (strain B95-8) (HHV-4) (Human herpesvirus 4), UniProt P03211); assay: EBNA-1 inhibitors, dose response, biochemical, fluorescence polarization, 1536-well (AID 2381); design: species or system human gammaherpesvirus 4;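 further: fluorescence polarization of a Cy5 DNA probe bound by EBNA-1 protein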
[3] = target: T1, Neuropeptide Y receptor type 1 (Homo sapiens, UniProt P25929); type: functional;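 further: HEK293 cells with a CNG channel challenged with NPY then isoproterenol; potency as antagonist that reverses NPY suppression of cAMP signal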
T1 sequence (P25929 whole entry): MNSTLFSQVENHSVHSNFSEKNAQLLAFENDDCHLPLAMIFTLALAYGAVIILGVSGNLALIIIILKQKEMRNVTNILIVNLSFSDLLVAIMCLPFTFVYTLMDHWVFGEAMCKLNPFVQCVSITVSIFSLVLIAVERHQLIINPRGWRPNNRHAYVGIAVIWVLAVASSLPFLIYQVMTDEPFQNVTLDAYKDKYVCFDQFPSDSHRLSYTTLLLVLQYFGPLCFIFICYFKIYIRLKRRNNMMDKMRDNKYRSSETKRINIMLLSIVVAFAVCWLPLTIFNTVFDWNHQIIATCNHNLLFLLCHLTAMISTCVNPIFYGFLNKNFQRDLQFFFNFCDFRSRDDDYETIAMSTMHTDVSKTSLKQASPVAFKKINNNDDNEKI

[4] = target: T2, Neuropeptide Y receptor type 2 (Homo sapiens, UniProt P49146); type: functional, cell-based;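 further: HEK293 cells expressing the receptor and a CNG channel; stimulus was NPY near EC95 followed by isoproterenol to raise cAMP; antagonist potency measured as restoring cAMP signal that NPY suppresses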
T2 sequence (P49146 whole entry): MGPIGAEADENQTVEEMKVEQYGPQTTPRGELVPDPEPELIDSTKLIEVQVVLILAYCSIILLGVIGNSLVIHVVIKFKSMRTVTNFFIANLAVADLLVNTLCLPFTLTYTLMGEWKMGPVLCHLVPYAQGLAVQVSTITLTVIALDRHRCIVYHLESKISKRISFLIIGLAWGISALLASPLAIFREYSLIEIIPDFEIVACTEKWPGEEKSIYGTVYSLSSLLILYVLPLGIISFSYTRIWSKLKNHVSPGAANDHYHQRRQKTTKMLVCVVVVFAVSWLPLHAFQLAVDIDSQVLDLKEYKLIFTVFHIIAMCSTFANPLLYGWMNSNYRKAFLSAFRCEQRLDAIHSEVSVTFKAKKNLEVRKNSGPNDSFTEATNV

[5] = target: T1, Neuropeptide Y receptor type 1; assay: NPY-Y1 receptor antagonist potency, dose response, cell-based (AID 1277); type: functional
[6] = target: T2, Neuropeptide Y receptor type 2; assay: NPY-Y2 antagonist potency, selectivity check, dose response, counter-screen for NPY-Y1 antagonist project, cell-based (AID 1278); type: functional
[7] = A cytotoxicity screen of small molecule inhibitors of the PhoP region in Salmonella typhi identified in the primary screen. [Related pubchem assays: 1850, 1864, 1985 ]; type: functional
[8] = target: Serine/threonine-protein phosphatase (Homo sapiens, UniProt Q9BPW0); assay: Counterscreen for inhibitors of PP1: fluorescence-based biochemical high throughput dose response assay to identify inhibitors of Protein Phosphatase 5 (PP5). [Related pubchem assays: 2034 (Summary (PP5 inhibitors)), 1987 (PP5 inhibitors in singlate), 2235 (PP1 inhibitors in singlate)]
[9] = target: 26S proteasome non-ATPase regulatory subunit 14 (Homo sapiens, UniProt O00487); assay: inhibition of proteasome subunit RPN11 – biochemical, fluorescence polarization, uHTS hits, confirmation (AID 602368); type: functional
Genome polyprotein = Genome polyprotein (Hepatitis C virus, UniProt Q2Q167); assay: HCV core protein dimerization inhibitors, dose response, biochemical, TR-FRET (AID 2159); design: species or system Hepacivirus hominis;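 further: blocks dimerization of HCV core protein measured by TR-FRET between tagged core106 pairs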
[10] = target: 72 kDa type IV collagenase (Homo sapiens, UniProt P08253); assay: Dose Response validation of uHTS RPN11 inhibitor hits using a MMP-2 Fluorescence assay.; type: functional
[11] = target: Serine/threonine-protein phosphatase PP1-alpha catalytic subunit (Homo sapiens, UniProt P62136); assay: PP1 phosphatase inhibitors, dose response, biochemical, fluorescence (AID 2403);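 further: phosphatase turnover of OMFP into fluorescent 3-O-methylfluorescein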
[12] = target: T3, Small ubiquitin-related modifier 1 (Homo sapiens, UniProt P63165); assay: inhibitors of SUMO1 partner interactions, dose response, biochemical, FRET (AID 624383); type: functional; conditions: read-out: IC50_Mean
Prothrombin = Prothrombin (Bos taurus, UniProt P00735); assay: thrombin inhibition, dose response, biochemical, fluorescence polarization, uHTS hits (AID 602369); type: functional
[13] = target: T3, Small ubiquitin-related modifier 1; assay: inhibitors of SUMO1 peptide binding, dose response, biochemical, fluorescence polarization, uHTS hits (AID 624382); type: functional; conditions: read-out: IC50_Mean
[14] = target: ATP-sensitive inward rectifier potassium channel 1 (Homo sapiens, UniProt P48048); assay: ROMK inhibition by analog compounds, SAR follow-up, cell-based, thallium flux, analog library (AID 435017); type: functional
ATP-sensitive inward rectifier potassium channel 1, sequence (P48048 whole entry): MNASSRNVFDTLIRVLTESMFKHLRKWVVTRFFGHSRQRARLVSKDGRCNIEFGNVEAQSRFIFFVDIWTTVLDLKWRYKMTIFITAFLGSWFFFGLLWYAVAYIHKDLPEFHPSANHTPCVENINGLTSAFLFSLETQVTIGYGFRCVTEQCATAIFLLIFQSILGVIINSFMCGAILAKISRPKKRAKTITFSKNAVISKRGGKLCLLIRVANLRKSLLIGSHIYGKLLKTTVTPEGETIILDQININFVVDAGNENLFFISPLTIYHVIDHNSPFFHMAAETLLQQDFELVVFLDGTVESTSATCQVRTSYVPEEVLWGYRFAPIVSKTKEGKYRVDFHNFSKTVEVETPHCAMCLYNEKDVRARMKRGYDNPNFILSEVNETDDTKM

T3 sequence (P63165 whole entry): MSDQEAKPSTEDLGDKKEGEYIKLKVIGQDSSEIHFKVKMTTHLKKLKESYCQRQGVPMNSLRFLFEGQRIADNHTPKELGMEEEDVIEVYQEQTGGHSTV
72 kDa type IV collagenase, sequence (P08253 whole entry): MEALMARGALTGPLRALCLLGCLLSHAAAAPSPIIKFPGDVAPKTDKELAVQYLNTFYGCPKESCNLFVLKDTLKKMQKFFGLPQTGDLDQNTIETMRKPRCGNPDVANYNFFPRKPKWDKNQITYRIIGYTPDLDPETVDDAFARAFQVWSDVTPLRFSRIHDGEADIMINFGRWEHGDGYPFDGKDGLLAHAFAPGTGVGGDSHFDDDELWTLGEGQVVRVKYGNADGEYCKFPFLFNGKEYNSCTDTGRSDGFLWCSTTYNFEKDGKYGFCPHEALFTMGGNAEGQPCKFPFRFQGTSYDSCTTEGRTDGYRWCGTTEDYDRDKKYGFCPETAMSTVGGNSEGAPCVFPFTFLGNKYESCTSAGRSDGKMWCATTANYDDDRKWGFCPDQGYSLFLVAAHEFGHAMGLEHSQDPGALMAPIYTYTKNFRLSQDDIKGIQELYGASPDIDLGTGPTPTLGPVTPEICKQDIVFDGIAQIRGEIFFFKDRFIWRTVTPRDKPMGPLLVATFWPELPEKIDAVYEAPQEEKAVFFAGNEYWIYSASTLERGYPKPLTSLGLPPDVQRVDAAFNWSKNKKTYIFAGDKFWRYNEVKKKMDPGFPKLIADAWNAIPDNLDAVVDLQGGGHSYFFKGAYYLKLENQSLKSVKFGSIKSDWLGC
Serine/threonine-protein phosphatase, sequence (Q9BPW0 whole entry): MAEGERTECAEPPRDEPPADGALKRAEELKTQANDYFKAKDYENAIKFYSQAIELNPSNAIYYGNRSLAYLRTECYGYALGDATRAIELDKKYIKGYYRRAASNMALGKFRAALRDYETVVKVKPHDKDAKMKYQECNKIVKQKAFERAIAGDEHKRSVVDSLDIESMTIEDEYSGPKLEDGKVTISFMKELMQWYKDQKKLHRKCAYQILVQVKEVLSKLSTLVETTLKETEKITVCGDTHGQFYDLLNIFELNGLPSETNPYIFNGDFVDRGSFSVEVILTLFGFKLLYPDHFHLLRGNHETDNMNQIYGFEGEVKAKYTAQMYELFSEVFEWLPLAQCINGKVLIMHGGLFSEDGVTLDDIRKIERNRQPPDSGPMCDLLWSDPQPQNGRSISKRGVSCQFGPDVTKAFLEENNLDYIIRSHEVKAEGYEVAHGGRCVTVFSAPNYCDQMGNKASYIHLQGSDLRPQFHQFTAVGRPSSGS
26S proteasome non-ATPase regulatory subunit 14, sequence (O00487 whole entry): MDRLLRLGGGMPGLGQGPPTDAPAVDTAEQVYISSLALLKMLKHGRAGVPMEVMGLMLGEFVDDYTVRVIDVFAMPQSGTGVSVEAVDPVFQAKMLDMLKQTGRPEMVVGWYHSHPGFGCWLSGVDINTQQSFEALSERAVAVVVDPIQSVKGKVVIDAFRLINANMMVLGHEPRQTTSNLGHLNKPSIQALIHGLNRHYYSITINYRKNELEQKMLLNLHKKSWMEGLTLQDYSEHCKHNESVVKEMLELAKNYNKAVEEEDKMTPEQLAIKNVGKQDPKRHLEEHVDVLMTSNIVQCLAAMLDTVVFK
Lytic switch protein BZLF1, sequence (P03206 whole entry): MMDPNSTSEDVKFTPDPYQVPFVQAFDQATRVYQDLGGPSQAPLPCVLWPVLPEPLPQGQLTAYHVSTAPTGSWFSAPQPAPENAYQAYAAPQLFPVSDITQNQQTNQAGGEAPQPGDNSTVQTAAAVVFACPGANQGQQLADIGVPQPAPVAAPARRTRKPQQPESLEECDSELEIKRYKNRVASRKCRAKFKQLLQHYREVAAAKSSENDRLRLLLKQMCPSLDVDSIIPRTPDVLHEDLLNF
Genome polyprotein, sequence (Q2Q167 whole entry): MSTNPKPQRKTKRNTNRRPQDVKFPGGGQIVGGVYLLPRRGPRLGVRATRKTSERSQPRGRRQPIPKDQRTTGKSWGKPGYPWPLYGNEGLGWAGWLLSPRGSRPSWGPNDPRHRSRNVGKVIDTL
Serine/threonine-protein phosphatase PP1-alpha catalytic subunit, sequence (P62136 whole entry): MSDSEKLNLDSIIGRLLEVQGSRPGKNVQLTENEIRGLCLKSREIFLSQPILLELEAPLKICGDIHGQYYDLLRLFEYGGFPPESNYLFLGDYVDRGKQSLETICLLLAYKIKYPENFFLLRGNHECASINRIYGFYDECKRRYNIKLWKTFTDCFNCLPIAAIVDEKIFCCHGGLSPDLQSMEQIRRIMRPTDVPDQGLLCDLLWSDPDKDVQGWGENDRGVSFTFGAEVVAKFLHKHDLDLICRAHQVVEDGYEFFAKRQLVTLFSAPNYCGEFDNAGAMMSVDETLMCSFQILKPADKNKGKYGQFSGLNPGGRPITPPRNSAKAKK
Epstein-Barr nuclear antigen 1, sequence (P03211 whole entry): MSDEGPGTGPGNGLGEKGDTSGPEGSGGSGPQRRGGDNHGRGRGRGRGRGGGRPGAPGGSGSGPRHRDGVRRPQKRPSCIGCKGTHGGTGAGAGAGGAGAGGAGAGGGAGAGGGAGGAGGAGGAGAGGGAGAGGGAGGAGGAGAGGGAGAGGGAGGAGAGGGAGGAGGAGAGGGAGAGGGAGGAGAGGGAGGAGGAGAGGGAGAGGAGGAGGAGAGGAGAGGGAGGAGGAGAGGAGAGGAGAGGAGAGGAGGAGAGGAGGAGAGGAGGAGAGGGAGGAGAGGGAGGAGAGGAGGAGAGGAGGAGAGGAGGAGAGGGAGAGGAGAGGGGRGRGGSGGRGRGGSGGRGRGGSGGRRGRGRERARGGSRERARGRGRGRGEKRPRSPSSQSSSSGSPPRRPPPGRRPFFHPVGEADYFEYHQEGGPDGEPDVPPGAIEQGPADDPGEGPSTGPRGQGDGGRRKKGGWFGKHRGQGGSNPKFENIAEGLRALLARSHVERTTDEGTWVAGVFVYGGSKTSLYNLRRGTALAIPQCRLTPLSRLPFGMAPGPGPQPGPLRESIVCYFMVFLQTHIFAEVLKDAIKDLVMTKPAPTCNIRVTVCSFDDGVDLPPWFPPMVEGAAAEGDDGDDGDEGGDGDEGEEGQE

N#C/C(=C\c1cn(Cc2ccccc2F)c2ccccc12)C(=O)NCc1ccco1
IC50 [1]: > 111 µM (not active)
IC50 [2]: 6.53 µM (active)

N=c1n(Cc2ccc(Cl)cc2)c2ccccc2n1CC(O)c1ccco1 (configuration not stated)
IC50 [3]: > 35 µM (not active)
IC50 [4]: > 35 µM (not active)

CNCc1cc(Cl)cc(OC)c1OC(C)C
IC50 [5]: > 35 µM (not active)
IC50 [6]: > 35 µM (not active)

COc1cc(C)c(Cl)cc1S(=O)(=O)n1cnc(C)c1
EC50 [7]: > 50 µM (active)

CCOc1ccc2nc(NC(=O)C(CCSC)NS(=O)(=O)c3cccs3)sc2c1 (configuration not stated)
IC50 (cells): 2.48 µM (active)

CCOc1ccc(NC(=O)c2ccc(NC(=O)COC(=O)c3ccc(NC(=O)CC#N)cc3)cc2)cc1
IC50 [8]: > 67 µM (not active)
IC50 [9]: 15.9 µM (active)
IC50 (Genome polyprotein): > 49.8 µM (not active)
IC50 [10]: > 100 µM (inactive)
IC50 [11]: 6.8 µM (active)
IC50 [12]: 2.11 µM (active)
IC50 (Prothrombin): 55.4 µM (active)
IC50 [13]: > 66.6 µM (inactive)

O=[N+]([O-])c1ccc(CN2CCOCCOCCN(Cc3ccc([N+](=O)[O-])cc3)CCOCC2)cc1
IC50 [14]: 0.273 µM (active)
